We go through 74 compounds from US20120010177A1, “MicroRNA Modulators and Method for Identifying And Using The Same” (The Wistar Institute / North Carolina State University, priority 2008, published 2012).

Usually AC50 stands for the midpoint of the concentration-response curve, whichever way the signal moves.

For one experiment, the system named is miR-21. Put plainly: High throughput primary miR-21 FLuc reporter assay (concentration-response). Format: cell-based, human. The conditions noted are these: Homo sapiens. The protocol: Primary miR-21 Assay. The primary miR-21 FLuc reporter assay is carried out with HeLa cells expressing the Luc-miR-21 reporter using a 48-hour incubation time. Active compounds that increase the luciferase response are identified based upon inhibition of miR-21.
SAR. The concentration-response data for the entire high throughput screen is plotted and modeled by a four parameter logistic fit and SAR analysis is performed according to conventional approaches (Iglese, et al. (2006) Proc. Natl. Acad. Sci. USA […]:11473-8). In brief, Class 1.1 and 1.2 are full curves containing upper and lower asymptotes with efficacy ≧80% and <80%, respectively. Class 2.1 and 2.2 are incomplete curves having only one asymptote with efficacy ≧80% and <80%, respectively. Class 3 curves show activity at only the highest concentration or are poorly fit. […] For SAR analysis, compounds associated with Class 1 and 2.1 curves are clustered using LEADSCOPE® fingerprints. […] Compounds sharing a common scaffold form a series. Candidate series and singletons are chosen for follow up studies. For each lead or series, an appropriate library design method (e.g., point substitution library or matrix library) is selected. Typically, precursors are synthesized and a library of 15-25 compounds is produced for analysis in the above-described assays.
`COc1ccc(-c2c/c(=N\CC(=O)O)c3ccccc3o2)cc1.[O-][Cl+3]([O-])([O-])O` [Compound 263] displayed a concentration at half-maximal activity (AC50) of 3.69 µM.
On the same count and under the same terms, the same measure for `COP(=O)(OC)C(Nc1ccc(C)cc1)c1ccc([N+](=O)[O-])cc1` (stereo not shown) [Compound 286]: 10.4 µM.

The experiment is the same for the next values; noted with them: Homo sapiens, HeLa, 48 h, HeLa Luc-miR-21 reporter, 48-hour incubation; read-out: AC50.
In the case of `CSc1nsc(SCC(=O)Nc2ccc(F)cc2F)n1` [Compound 131], the AC50 stood at 4.14 µM.
Same read-out and setting: the same measure for `NC(=O)c1ccccc1NC(=O)c1ccc(-c2ccc(Br)cc2)o1` [Compound 105]: 1.17 µM.
The same measure, in the same setting: the same measure for `Cc1cccc(-c2nsc(SCC(=O)Nc3ccc4c(c3)OCO4)n2)c1` [Compound 148]: 13.1 µM; for `COc1ccccc1NC(=O)CSc1nnc(-c2ccccn2)o1` [Compound 153]: 14.7 µM.
Same read-out and setting: the same measure for `COc1ccc(-c2nn3c(C4CCCCC4)nnc3s2)cc1OC` [Compound 56]: 3.29 µM.
As for `C/C(=N\NC(=O)c1ccoc1C)c1ccc(Br)s1` [Compound 219], the AC50 is 11.7 µM.
On the same count and under the same terms, the same measure for `COc1ccc(C(=O)Nc2nnc(C(C)C)s2)cc1OC` [Compound 92]: 7.36 µM.
In the case of `C/C(=N\N1C(=O)c2ccccc2NC1c1ccccc1)c1ccccc1O` (stereo not shown) [Compound 192], the AC50 was 2.61 µM.
For the compound `O=C(Nc1ccccc1OC(=O)c1ccc(Cl)cc1)c1ccc(Cl)cc1` [Compound 107], the AC50 worked out at 11.7 µM.
Still for that read-out and setting: to `COc1nc(Nc2cccc(C(F)(F)F)c2)nc(OC)n1` [Compound 63] belongs 14.7 µM; to `O=C(CSc1nnc(-c2ccc(O)cc2)o1)Nc1ccccc1Br` [Compound 123], 1.31 µM.
On the same count and under the same terms, the same measure for `CCOc1ccc(NC(=O)CSc2ccc3ccccc3n2)cc1` [Compound 163]: 18.5 µM; for `COc1ccc(OCC(=O)Nc2ccc(-c3nc4cc(C)c(C)cc4o3)cc2)cc1` [Compound 165]: 0.13 µM; for `O=C(CCc1ccccc1)Nc1cccnc1Cl` [Compound 96]: 13.1 µM.
Same read-out and setting: the same measure for `O=C(O)c1ccccc1C(=O)N1N=C(c2ccccc2)CC1c1ccccc1O` (stereo not shown) [Compound 226]: 14.7 µM.
Regarding `COc1ccc(Nc2nc(N)nc(CSc3nccc(C)n3)n2)cc1` [Compound 66], the AC50 stood at 16.5 µM.
Still for that read-out and setting: to `Cc1ccc(-c2cc(C(=O)NCCc3ccccc3)c3c(-c4ccc(C)cc4)[nH]nc3c2)cc1` [Compound 110] belongs 9.26 µM.
The same measure, in the same setting: the same measure for `CCc1ccc(-n2nnc(-c3nc(-c4cccs4)no3)c2N)cc1` [Compound 15]: 1.17 µM; for `COc1ccc(-c2csc(NC(=O)COC(=O)c3ccc(Br)o3)n2)cc1` [Compound 177]: 2.93 µM.
Still for that read-out and setting: to `C#Cc1cccc(NC(=O)CSc2nnc(-c3ccc(C(F)(F)F)cn3)o2)c1` [Compound 130] belongs 4.14 µM; to `COc1ccc(NC(=O)c2nnn(CC(=O)Nc3cccc(C)c3C)c2N)c(OC)c1` [Compound 102], 13.1 µM.
Turning to `COc1ccc(NC(=O)c2sc3nc[nH]c(=O)c3c2C)cc1Cl` [Compound 103], the AC50 amounted to 16.5 µM.
The same measure, in the same setting: the same measure for `Cc1ccsc1/C=N/NC(=O)c1ccc(-n2cccc2)cc1` [Compound 223]: 13.1 µM; for `COc1cc(NC(=O)C/C(C)=N/NC(=O)c2ccccn2)c(OC)cc1Cl` [Compound 194]: 3.69 µM; for `CC(C)(C)c1ccc(-c2nc(NC(=O)CSc3ccc4ccccc4n3)ns2)cc1` [Compound 126]: 2.33 µM.
`CC(=O)Nc1nc2c(C)cc(NC(=O)C3CCCCC3)cc2s1` [Compound 97]: the half-maximal activity concentration (AC50) was 14.7 µM.
Still for that read-out and setting: the same measure for `COc1ccc(NC(=O)C/C(C)=N/NC(=O)c2cccs2)c([N+](=O)[O-])c1` [Compound 190]: 1.85 µM.
The same measure, in the same setting: to `Cc1ccc(C)c(N/C(S)=N/NC(=O)c2csc(C)c2C)c1` [Compound 207] belongs 6.56 µM.
The same measure, in the same setting: to `Cc1ccc(Nc2c(-c3ccc(C)o3)nc3cnccn23)cc1` [Compound 244] belongs 16.5 µM; to `Cc1c(Cl)cccc1Nc1nc(N)nc(CSC(=S)N2CCOCC2)n1` [Compound 68], 18.5 µM; to `Cc1cccc(-c2nnc(SCC(=O)Nc3ccc(C)c(C)c3)o2)c1` [Compound 134], 5.85 µM.
For `COc1ccc(C(=O)NCCC2=CCCCC2)cc1OC1CCN(C(C)C)CC1` [Compound 117], the concentration at half-maximal activity (AC50) was determined as 16.5 µM.
The same measure, in the same setting: to `COc1ccc(NC(=O)CSc2nnc(-c3cccs3)o2)cc1` [Compound 137] belongs 6.56 µM.
The same measure, in the same setting: to `Cc1cccc(-n2nnc(-c3nc(-c4cccs4)no3)c2N)c1` [Compound 11] belongs 0.33 µM; to `CN(C)c1ccc(CNc2nc(-c3ccco3)nn2S(C)(=O)=O)cc1` [Compound 33], 7.36 µM; to `COc1ccc(NC(=O)C/C(C)=N/NC(=O)c2ccco2)c([N+](=O)[O-])c1` [Compound 237], 20.8 µM.
Still for that read-out and setting: the same measure for `O=C(CSc1nnc(-c2ccc(C(F)(F)F)cn2)o1)Nc1cccc(Cl)c1` [Compound 132]: 4.14 µM; for `O=C(CSc1nnc(-c2cccnc2)o1)Nc1cccc(Cl)c1` [Compound 149]: 13.1 µM.
In the case of `CC(C)(C)c1ccc(NC(=O)CSc2nnc(-c3[nH]nc4ccccc34)o2)cc1` [Compound 138], the concentration at half-maximal activity (AC50) is 6.56 µM.
Turning to `CCCCCCC1/C(=N\NC(=O)c2ccccc2)CCC1C(=O)OC` (stereo not shown) [Compound 230], the half-maximal activity concentration (AC50) worked out at 16.5 µM.
As to `Cc1ccc(OCC(=O)N(Cc2ccco2)c2ccccn2)cc1` [Compound 169], the AC50 was found to be 14.7 µM.
On the same count and under the same terms, to `Fc1cccc(Cl)c1CSc1nnc2ccccn12` [Compound 46] belongs 10.4 µM.
In the case of `Cc1cccc(-n2nnc(-c3nc(-c4ccccc4)no3)c2N)c1C` [Compound 20], the AC50 is 1.85 µM.
Same read-out and setting: to `CCC(C)NC(=O)CSc1ccc(Cl)cc1` (stereo not shown) [Compound 162] belongs 18.5 µM.
On the same count and under the same terms, to `CCCC(=O)N(CCN1CCOCC1)c1nc2cc(C)c(C)cc2s1` [Compound 120] belongs 7.36 µM.
The same measure, in the same setting: to `O=C(Nc1ccc2nn(-c3ccccc3)nc2c1)c1ccc(-c2cccc(Cl)c2)o1` [Compound 109] belongs 18.5 µM; to `Cc1ccc(SCC(=O)Nc2ccc3oc(-c4ccc(F)cc4)nc3c2)cc1` [Compound 140], 7.36 µM.
With `Cc1ccccc1Nc1nc(N)nc(CSc2nnc3ccccn23)n1` [Compound 64], the AC50 turned out to be 16.5 µM.

The same experiment, now with this note: Homo sapiens, Table 12 singletons; read-out: AC50.
In the case of `CCOC(=O)N1CCN(C(=O)CSCc2ccccc2Cl)CC1` [Compound 329], the AC50 turned out to be 16.5 µM.
Same read-out and setting: to `COc1ccc(/C=C/C(=O)NC2CCCCCC2)cc1S(=O)(=O)N1CCOCC1` [Compound 287] belongs 10.4 µM.
On the same count and under the same terms, to `O=C(c1ccc(COCC(F)(F)F)cc1)N1CCN(c2ccccn2)CC1` [Compound 298] belongs 14.7 µM; to `Cc1ccc2c(c1)NCC(C(=O)NC1CCC(C)CC1)O2` (stereo not shown) [Compound 305], 14.7 µM; to `CCNc1ccc(/N=N/c2c(C)n(C)n(-c3ccccc3)c2=O)cc1` [Compound 344], 16.5 µM.
For the compound `O=C1C(Nc2ccccc2)=C2CCCC=C2N1c1ccccc1` [Compound 267], the AC50 worked out at 4.14 µM.
On to `Cc1ccc(/C=N/NC(=O)NC2CCCCC2)o1` [Compound 342], for which the AC50 was 18.5 µM.
Regarding `O=c1n(Cc2ccccc2)nc2n1-c1ccccc1SC2` [Compound 321], the AC50 was 16.5 µM.
Still for that read-out and setting: the same measure for `O=C(Nc1ccc(N2CCOCC2)cc1)c1cc(F)c(F)cc1Cl` [Compound 330]: 16.5 µM.
On the same count and under the same terms, the same measure for `CC1(C)Cc2nc3oc4c(S)ncnc4c3cc2CO1` [Compound 295]: 13.1 µM; for `COc1ccc(C(CC(=O)Nc2ccc(C(C)=O)cc2)N2Cc3ccccc3C2=O)cc1` (stereo not shown) [Compound 289]: 11.7 µM; for `CCC(C)NC(=O)c1ccc2c(c1)S(=O)(=O)c1ccccc1C2=O` (stereo not shown) [Compound 331]: 16.5 µM.
On the same count and under the same terms, to `CCOC(=O)Nc1ccc2c(c1)ncn2C1CCCCC1` [Compound 333] belongs 18.5 µM.
Turning to `O=C(CN1c2ccc(Br)cc2-c2ccccc2[S+]1(=O)[O-])N1CCCCC1` [Compound 345], the AC50 turned out to be 9.27 µM.
The same measure, in the same setting: the same measure for `CSc1c(C#N)c(N)c(C#N)c2c1COC(C)(C)C2` [Compound 332]: 18.5 µM; for `Cc1ccc2nc(C)c(/C=C/C(=O)c3ccco3)cc2c1` [Compound 297]: 14.7 µM.
As for `COC(=O)c1ccc(Cn2nnc3sc4c(c3c2=O)CCCC4)cc1` [Compound 273], the concentration at half-maximal activity (AC50) came out at 6.56 µM.
Regarding `COc1cc(O)sc1/C=N/c1ccc(Cl)cc1` [Compound 279], the concentration at half-maximal activity (AC50) amounted to 7.36 µM.
`CC(=O)N(C)c1ccc(N/C(S)=N/c2cccc3ccccc23)cc1` [Compound 337]: the AC50 amounted to 18.5 µM.
The same measure, in the same setting: to `CNc1cc([N+](=O)[O-])ccc1/N=C/C=C(\O)c1cccs1` [Compound 290] belongs 11.7 µM; to `Cn1nc2c3ccccc3n(Cc3ccccc3)c2nc1=S` [Compound 311], 14.7 µM.
Same read-out and setting: to `CC(C)N1C(=O)CN(C2CCCCCC2)C(=O)C1c1ccccc1F` (stereo not shown) [Compound 301] belongs 14.7 µM.
Still for that read-out and setting: the same measure for `CC(=O)N1N=C(c2ccc(C)cc2)OC1c1cccnc1` (stereo not shown) [Compound 322]: 16.5 µM.

The same experiment, now with this note: Table 12 singletons; concentration-response curve class.
For `Cc1cccc2c1-c1sc(C(=O)Nc3cccnc3)cc1CO2` [Compound 323, CC1═C/C═C\C2═C\1\C3═C(CO2)\C═C(/S3)C(═O)NC4═C/C═C\N═C\4], the “Curve Class” value is reported as −2.2.

The same experiment, now with this note: Table 12 singletons; negative values as printed.
For the compound `Cc1cccc2c1-c1sc(C(=O)Nc3cccnc3)cc1CO2` [Compound 323, CC1═C/C═C\C2═C\1\C3═C(CO2)\C═C(/S3)C(═O)NC4═C/C═C\N═C\4], the Efficacy is −70.23.

The experiment is the same for the next values; noted with them: Table 12 singletons; read-out: AC50.
Consider `Cc1cccc2c1-c1sc(C(=O)Nc3cccnc3)cc1CO2` [Compound 323, CC1═C/C═C\C2═C\1\C3═C(CO2)\C═C(/S3)C(═O)NC4═C/C═C\N═C\4], for which the AC50 came to 16.5 µM.
